Experimental data reported in patent US20190105367A1, “ANTIMICROBIAL 4-OXOQUINOLIZINES” (Emergent Product Development Gaithersburg Inc., priority 2011, published 2019).
Values after ≈ are worked out from the molar mass of the structure shown. Values joined by “and” are separate entries in the source; they are usually repeats but may differ in a detail not shown here. Identical values can stand only once.

Legend:
E. coli IMP = test: microbe, parasite or virus in culture; details: Escherichia coli, read-out: MIC E. coli IMP
E. coli 25922 = test: MIC, standard panel of Gram-positive and Gram-negative strains (Example 2); assay type: cell-based; details: Escherichia coli
[1] = system: strains of A. baumannii and one strain of Acinetobacter sp.; test: MIC without polymyxin B, panel of Acinetobacter strains (Example 4); assay type: cell-based; details: for MIC range without PB Oct. 1, 2006 n = 8: 1st experiment
P. aeruginosa 27853 = test: MIC, standard panel of Gram-positive and Gram-negative strains (Example 2); assay type: cell-based; details: Pseudomonas aeruginosa
[2] = system: GN31 Acinetobacter baumannii antibiotic susceptible isolate; test: Chequerboard synergy with polymyxin B, FICI (Example 6); assay type: cell-based; details: for FICI / Synergy: combination with polymyxin B; for Combination drug concentration in combination: in combination with polymyxin B; for Polymyxin B MIC in combination: polymyxin B with the named antibiotic
Method in brief: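 Broth microdilution chequerboard per CLSI in cation-adjusted Mueller-Hinton broth II; doubling dilutions spanning ≥2 above to 4 below each agent's MIC, polymyxin B fixed at 0.008–8 mg/L (0.004–4 mg/L for GN31). FICI summed from each agent's combination MIC over its MIC alone.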

S. aureus ATCC 25923 = test: MIC, selected panel of bacterial strains (Example 5); assay type: cell-based, Staphylococcus aureus; details: Staphylococcus aureus, ATCC25923; read-out: MICs against Gram positive bacteria S. aureus ATCC 25923
[3] = system: GN31 Acinetobacter baumannii; test: Pre-chequerboard MIC for synergy study (Example 6); assay type: cell-based; details: antibiotic susceptible clinical isolate
Source text: (§1) A chequerboard technique was used to identify possible synergistic or antagonistic interactions between the 4-oxoquinolizines compounds, levofloxacin and polymyxin B. Levofloxacin was included as a control. […] Final dilutions were made in Mueller-Hinton broth, the specific test medium used for MIC determinations according to CLSI guidelines (CLSI. Methods for Dilution Antimicrobial Susceptibility Tests for Bacteria That Grow Aerobically; Approved Standard-Eighth Edition (2009). CLSI Document M07-A8. CLSI, Wayne, Pa. 19087-1898, USA.). The test medium used was a cation-adjusted Mueller-Hinton Broth II (Becton Dickinson UK Ltd., Oxford Science Park, Oxford, UK, OX4 4DQ).
(§2) The compounds 2, 33 and 35, as well as levofloxacin were tested in combination with polymyxin B on the following isolates: GN31 Acinetobacter baumannii—antibiotic susceptible clinical isolate, GN52 Acinetobacter baumannii—levofloxacin resistant clinical isolate, GN56 Acinetobacter baumannii—levofloxacin resistant clinical isolate, GN48 Klebsiella pneumoniae—NCTC 13443—NDM-1-metallo-β-lactamase and GN10 Pseudomonas aeruginosa—ATCC 27853—antibiotic susceptible reference isolate. All isolates are from the collection maintained at Quotient Bioresearch Ltd., Cambridge, UK.
(§3) The MIC values for the compounds and polymyxin B and levofloxacin were determined by broth microdilution following CLSI guidelines, and the MICs of agents in combination were determined as described by Pillai et. al (Pillai S K, Moellering R C Jr, Eliopoulis G M; Antimicrobial Combinations in Antibiotics in Laboratory Medicine 5th Edition (V. Lorian Ed) (2005) p 365-440). Initial MIC results were used to determine the microtiter plate patterns for the chequerboards. A suitable doubling dilution concentration range was selected such that the combination antibiotic range was at least two concentrations above and four concentrations below the MIC for each isolate. A fixed range of 0.008 to 8 mg/L was tested for polymyxin B except in the case of A. baumannii GN31 where a range of 0.004 to 4 mg/L was tested when in combination with the compounds 2, 33 and 35 as well as levofloxacin.

[4] = system: GN56 Acinetobacter baumannii; test: Pre-chequerboard MIC for synergy study (Example 6); assay type: cell-based; details: levofloxacin resistant clinical isolate
Source text: as §1, §2, §3

[5] = system: GN52 Acinetobacter baumannii; test: Pre-chequerboard MIC for synergy study (Example 6); assay type: cell-based; details: levofloxacin resistant clinical isolate
Source text: as §1, §2, §3

[6] = system: GN48 Klebsiella pneumoniae; test: Pre-chequerboard MIC for synergy study (Example 6); assay type: cell-based; details: NCTC 13443, NDM-1
Source text: as §1, §2, §3

[7] = system: GN10 Pseudomonas aeruginosa; test: Pre-chequerboard MIC for synergy study (Example 6); assay type: cell-based; details: ATCC 27853, antibiotic susceptible
Source text: as §1, §2, §3

S. pneumoniae 1027 = test: MIC, panel of quinolone-resistant strains (Example 2); assay type: cell-based; details: Streptococcus pneumoniae, LEV R
A. baumannii J2 = test: MIC determination for Acinetobacter strains (Example 3); assay type: cell-based, Acinetobacter baumannii; details: LEV R, CIP R
A. baumannii A387 = test: as above; assay type: cell-based, Acinetobacter baumannii; details: LEV I, CIP R, IPM R, AMK R, TET R
A. baumannii A489 = test: as above; assay type: cell-based, Acinetobacter baumannii; details: LEV R, CIP R, MRP R, IMP R, AMK R, TET R
A. baumannii A329 = test: as above; assay type: cell-based, Acinetobacter baumannii; details: LEV R, CIP R, MRP R, IMP R, AMK R, TET R
A. baumannii A473 = test: as above; assay type: cell-based, Acinetobacter baumannii; details: LEV R, CIP R, MRP R, IMP R, AMK R, TET R
A. baumannii A401 = test: as above; assay type: cell-based, Acinetobacter baumannii; details: LEV R, CIP R, AMK R, TET R
A. baumannii A472 = test: as above; assay type: cell-based, Acinetobacter baumannii; details: LEV R, CIP R, MRP I, IMP I, AMK R, TET R
A. baumannii A390 = test: as above; assay type: cell-based, Acinetobacter baumannii; details: LEV R, CIP R, MRP R, IPM I, AMK R, TET I
A. baumannii ATCC 19606 = test: as above; assay type: cell-based, Acinetobacter baumannii; details: reference strain
[8] = system: Acinetobacter spp. H064200250; test: as above; assay type: cell-based, Acinetobacter sp.; details: LEV R, CIP R, MRP R, IMP I
[9] = resistant strains, ATCC 19606, A329, A390 and A473 not taken

Cc1c(-c2cc(Cl)c(N)c(Cl)c2)ccn2c(=O)c(C(=O)O)cc(C3CC3)c12 [Compound 3, 8-(3,5-dichloro-4-amino-phenyl)-1-cyclopropyl-9-methyl-4-oxo-quinolizine-3-carboxylic acid]
MIC (E. coli IMP): 0.06 µg/mL (≈ 0.149 µM)

Cc1c(-c2ccc(N)cc2)ccn2c(=O)c(C(=O)O)cc(C3CC3)c12 [Compound 8, 8-(4-amino-phenyl)-1-cyclopropyl-9-methyl-4-oxo-quinolizine-3-carboxylic acid]
MIC (E. coli 25922): 0.03 µg/mL (≈ 0.0897 µM) | MIC ([1]; Acinetobacter baumannii, ATCC19606, read-out: MIC range without PB Oct. 1, 2006 n = 8, 1st experiment, resistant strains, ATCC 19606, A329, A390 and A473 not taken): 2 to 32 µg/mL (≈ 5.98 to 95.7 µM)

Cc1c(-c2ccc(CN)cc2)ccn2c(=O)c(C(=O)O)cc(C3CC3)c12 [Compound 5, 8-(4-aminomethyl-phenyl)-1-cyclopropyl-9-methyl-4-oxo-quinolizine-3-carboxylic acid]
MIC (P. aeruginosa 27853): 0.5 µg/mL (≈ 1.44 µM)

C[C@H]1COc2c(N3CCN(C)CC3)c(F)cc3c(=O)c(C(=O)O)cn1c23 [Levofloxacin, reference compound]
Combination drug MIC alone [2]: 0.06 µg/mL | FICx [2]: 0.13 | FICy [2]: 1.00 | FICI [2]: 1.13 | Synergy [2]: Indifferent (indifference (FICI 0.76 to 2.75)) | Combination drug concentration in combination [2]: 0.008 mg/L | Polymyxin B MIC in combination [2]: 0.5 µg/mL | MIC (S. aureus ATCC 25923): 0.125 µg/mL (≈ 0.346 µM)

Polymyxin B [reference compound]
Polymyxin B MIC alone [2]: 0.25 µg/mL and 0.5 µg/mL | Pre-chequerboard MIC GN31 Acinetobacter baumannii [3]: 0.5 µg/mL | Pre-chequerboard MIC GN56 Acinetobacter baumannii [4]: 0.5 µg/mL | Pre-chequerboard MIC GN52 Acinetobacter baumannii [5]: 0.5 µg/mL | Pre-chequerboard MIC GN48 Klebsiella pneumoniae [6]: 1 µg/mL | Pre-chequerboard MIC GN10 Pseudomonas aeruginosa [7]: 1 µg/mL

Cc1c(-c2ccc(CN)cc2)c(F)cn2c(=O)c(C(=O)O)cc(C3CC3)c12 [Compound 6, 8-(4-aminomethyl-phenyl)-1-cyclopropyl-7-fluoro-9-methyl-4-oxo-quinolizine-3-carboxylic acid]
MIC (E. coli IMP): 0.03 µg/mL (≈ 0.0819 µM)

8-[(3S)-3-aminocyclopentyl]-1- cyclopropyl-7-fluoro-9-methyl- 4-oxo-quinolizine-3-carboxylic acid [Compound 10, reference compound]
MIC range without PB Oct. 1, 2006 n = 8 [1, 9]: 0.5 to 8 µg/mL | MIC range without PB Oct. 14, 2008 n = 11 ([1]; 2nd experiment, all strains except the ATCC strain): 0.5 to 2 µg/mL

Cc1c(-c2cc(F)c(N)cc2F)ccn2c(=O)c(C(=O)O)cc(C3CC3)c12 [Compound 2, 8-(4-amino-2,5-difluorophenyl)-1-cyclopropyl-9-methyl-4-oxo-4H-quinolizine-3-carboxylic acid]
MIC (S. pneumoniae 1027): 0.5 µg/mL (≈ 1.35 µM) | Combination drug MIC alone [2]: 0.06 µg/mL | FICx [2]: 0.25 | FICy [2]: 0.24 | FICI [2]: 0.49 | Synergy [2]: Synergy (Synergy (FICI <0.5)) | Combination drug concentration in combination [2]: 0.015 mg/L | Polymyxin B MIC in combination [2]: 0.06 µg/mL

Cc1c(-c2ccc(N)cc2)c(F)cn2c(=O)c(C(=O)O)cc(C3CC3)c12 [Compound 7, 8-(4-amino-phenyl)-1-cyclopropyl-7-fluoro-9-methyl-4-oxo-quinolizine-3-carboxylic acid]
MIC (E. coli 25922): 0.03 µg/mL (≈ 0.0851 µM)

Cc1c(-c2ccc(CN)c(F)c2)ccn2c(=O)c(C(=O)O)cc(C3CC3)c12 [Compound 4, 8-(3-fluoro-4-aminomethyl-phenyl)-1-cyclopropyl-9-methyl-4-oxo-quinolizine-3-carboxylic acid]
MIC (P. aeruginosa 27853): 0.5 µg/mL (≈ 1.36 µM)

Imipenem/cilastatin
MIC A. baumannii J2 (A. baumannii J2): 4 µg/mL | MIC A. baumannii A387 (A. baumannii A387): 16 µg/mL | MIC A. baumannii A489 (A. baumannii A489): 128 µg/mL | MIC A. baumannii A329 (A. baumannii A329): 128 µg/mL | MIC A. baumannii A473 (A. baumannii A473): 32 µg/mL | MIC A baumannii A401 (A. baumannii A401): 32 µg/mL | MIC A. baumannii A472 (A. baumannii A472): 16 µg/mL | MIC A. baumannii A390 (A. baumannii A390): 16 µg/mL | MIC range without PB Oct. 1, 2006 n = 8 [1, 9]: 1 to 128 µg/mL | MIC A. baumannii ATCC 19606 (A. baumannii ATCC 19606): 2 µg/mL | MIC Acinetobacter spp. H064200250 [8]: 16 µg/mL
